Experimental findings from US20240215582A1, “METHODS OF CONTROLLING PLANT PATHOGENS” (Valent BioSciences LLC, priority 2022, published 2024) are described below.

In one assay the test system is Botrytis cinerea. Put plainly: Foliar application, inoculated plants, disease severity. The settings on record: for Disease severity B. cinerea: carrier control severity 63.3; for percent control B. cinerea: vs carrier control.
For a further assay, the system named is Ustilago maydis. Kind of assay: In vitro growth on cervinomycin-amended growth media. The format is cell-based.

Experimental for Botrytis cinerea: Biological efficacy assays utilizing cervinomycins were conducted on Pseudoperonospora cubensis and Botrytis cinerea. […] Once plants had dried they were inoculated with the pathogen, then were stored in a controlled climate chamber under high humidity for 4-6 days. At the end of the experiment disease severity was determined based on the percentage of plant tissue that was visually symptomatic.

For `COc1cc2oc3c(c(=O)c2cc1OC)C(=O)c1c(ccc2cc4c(c(O)c12)C(=O)N1CCOC1(C)C4)C3=O` (stereo not drawn) [Cervinomycin A2, cervinomycin A2], the “Disease severity B. cinerea” value in the assay on Botrytis cinerea (1 ppm foliar) was determined as 58%; in the assay with Botrytis cinerea (3 ppm foliar), 45%; with Botrytis cinerea (6 ppm foliar) it was 45%; with Botrytis cinerea (12 ppm foliar), 30%; in the assay on Botrytis cinerea (25 ppm foliar), 24%; in the assay on Botrytis cinerea (50 ppm foliar), 9%. The “percent control B. cinerea” value with Botrytis cinerea (1 ppm foliar) is recorded as “(9%)”; in the assay on Botrytis cinerea (3 ppm foliar), “(29%)”; with Botrytis cinerea (6 ppm foliar), “(29%)”; with Botrytis cinerea (12 ppm foliar), “(53%)”; with Botrytis cinerea (25 ppm foliar), “(63%)”; in the assay on Botrytis cinerea (50 ppm foliar) it was “(87%)”. Further, the “control of Botrytis cinerea (summary of Table 3)” value with Botrytis cinerea (foliar application) is “significant control”. Also, the “% Control Ustilago maydis” value amounted to 6% with Ustilago maydis (0.004 ppm in growth media); 12% in the assay with Ustilago maydis (0.016 ppm in growth media); 90% in the assay on Ustilago maydis (0.063 ppm in growth media); 100% in the assay on Ustilago maydis (0.25 ppm in growth media); 100% in the assay with Ustilago maydis (1 ppm in growth media).
